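How tested: cells in 96-well plates exposed to compound for 48 hours at five concentrations. The concentration for 50% growth inhibition is given as GI50. TGI denotes the concentration required for complete inhibition of growth.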

The test system of the assay is MDA-MB-468 breast. The assay can be described thus: inhibition of tumour cell growth, NCI panel, 48 h.
In the case of `C=CC[C@@H]1/C=C(\C)C[C@H](C)C[C@H](OC)[C@H]2O[C@@](O)(C(=O)C(=O)N3CCCC[C@H]3C(=O)O[C@H](/C(C)=C/C3CC[C@@H](O)[C@H](OC)C3)[C@H](C)[C@@H](O)CC1=O)[C@H](C)C[C@@H]2OC` (some centres undefined), the GI50 was 12.2 µM and the TGI came to 27.3 µM.

For the compound `O=C(CN1C(=O)S/C(=C\C(Cl)=C\c2ccccc2)C1=O)NCCc1ccc(O)cc1`, the GI50 was 1.27 µM and the TGI was determined as 3.54 µM.

In the case of `O=C1CCC(N2Cc3c(C#CCCCNC(=O)c4cc5c(o4)C(=O)c4ccccc4C5=O)cccc3C2=O)C(=O)N1` (centres undefined), the GI50 is 2.13 µM and the TGI came out at 6.25 µM.

`COc1ccc(CCN2CCC(Nc3nc4ccccc4n3Cc3ccc(F)cc3)CC2)cc1`: the GI50 is 1.15 µM and the TGI turned out to be 2.44 µM.

With `CCN(CC)CCCC(Cc1ccccc1)Nc1c2ccc(Cl)cc2nc2ccc(OC)cc12` (centres undefined), the GI50 is 1.7 µM and the TGI was 3.67 µM.

`N#C/C(=C1C=C/C(=N\O)C(Cl)=C\1)c1ccccc1`: the GI50 was 0.92 µM and the TGI stood at 17.5 µM.

For `O=C(Cc1ccccc1)NC(c1ccc(Cl)cc1)c1c(O)ccc2ccccc12` (centres undefined), the GI50 is 1.99 µM and the TGI was determined as 5.53 µM.

Turning to `COC1=C2C[C@@H](C)C[C@@H](OC)[C@@H](O)[C@H](C)/C=C(\C)[C@@H](OC(N)=O)[C@H](OC)/C=C\C=C(/C)C(=O)NC(=CC1=O)C2=O`, the GI50 is 0.0153 µM and the TGI came to 0.577 µM.

Turning to `CCOC(=O)c1c(Cl)c2c(n1Cc1cccc(OC)c1)-c1oncc1CC2`, the GI50 was 0.652 µM and the TGI was 5.87 µM.

Take `CCn1c(-c2nonc2N)nc2cncc(C(=O)NCCNC)c21`: the GI50 is 1.9 µM and the TGI amounted to 14.6 µM.

With `CS(=O)(=O)c1ccc(Oc2cc(F)cc(C#N)c2)c2c1[C@H](O)C(F)(F)C2`, the GI50 is above 100 µM and the TGI is above 100 µM.

In the case of `O=C(NCCNc1nccc(-c2c(-c3ccc(F)cc3)nc3sccn23)n1)c1ccccc1`, the GI50 is 4.48 µM and the TGI was 44.5 µM.

On to `S=C(c1ccc2c(c1)OCO2)N1CCN(c2cccc(Cl)c2)CC1`, for which the GI50 is 0.34 µM and the TGI is above 36.8 µM.

Turning to `C=C(C)[C@@H]1CC[C@]2(C(=O)O)CC[C@]3(C)[C@H](CC[C@@H]4[C@@]5(C)C/C(=C/c6ccc(OC)cc6)C(=O)C(C)(C)[C@@H]5CC[C@]43C)[C@@H]12`, the GI50 was 1.81 µM and the TGI worked out at 7 µM.

As to `O=C(NCCNc1nccc(-c2c(-c3cccc(O)c3)nc3sccn23)n1)Nc1cccc(C(F)(F)F)c1`, the GI50 was 1.67 µM and the TGI is 3.33 µM.

As to H-HIIKKIRTWYRKAWHVLGKV-NH2, the GI50 is 6.38 µM and the TGI came to 39 µM.

As to `COc1ccc(-c2nn(-c3cccc(NC(=O)c4cccc(C(F)(F)F)c4)c3)cc2-c2ccncc2)cc1Cl`, the GI50 was 1.68 µM and the TGI came out at 9.61 µM.

For `C#C[C@]1(O)CC[C@H]2[C@@H]3CC=C4c5sc(Nc6cccc(F)c6)nc5CC[C@]4(C)[C@H]3CC[C@@]21C`, the GI50 is 1.24 µM and the TGI was 2.91 µM.

Turning to `Cc1cc2cc3cc(C)c(N)cc3[n+](C)c2cc1N`, the GI50 was 0.243 µM and the TGI was 1.3 µM.

With `C/C(=C(\c1ccc(O)cc1)c1ccc(OCCN2CCCCCC2)cc1)c1ccc(Cl)cc1`, the GI50 was 1.13 µM and the TGI came out at 4.51 µM.

Consider `COc1nc(N)nc2c1ncn2[C@@H]1O[C@H](CO)[C@@H](O)[C@@H]1O`, for which the GI50 was above 100 µM and the TGI was above 100 µM.

As to `O=C(Nc1ccc(OCc2nnc(-c3ccccc3)o2)c(F)c1)Nc1ccc(Cl)c(C(F)(F)F)c1`, the GI50 was 1.9 µM and the TGI amounted to 6.93 µM.

Regarding `COc1ccc2cc(Cn3cc[n+](Cc4ccc5ccccc5c4)c3)ccc2c1`, the GI50 was 0.487 µM and the TGI came to 2.57 µM.

On to `COc1ccc(OC)c(/C=C2\COc3ccc(O)c(O)c3C2=O)c1`, for which the GI50 is 1.66 µM and the TGI was 5.25 µM.

Regarding `COc1ccc(-c2nc(N3CCOCC3)c3sc(CN(C)c4ncc(C(=O)NO)cn4)cc3n2)cn1`, the GI50 is below 0.0104 µM and the TGI stood at 0.0968 µM.

As for `CC1OC(n2c3ccccc3c3c4c(c5c6ccccc6[nH]c5c32)C(=O)N(CCN2CCOCC2)C4=O)CC(O)C1O` (centres undefined), the GI50 was 1.57 µM and the TGI was 4.57 µM.

As for `Cc1[nH]nc2ccc3nc(-c4ccc5[nH]ncc5c4)c4c(c3c12)CCCC4`, the GI50 was 1.02 µM and the TGI was determined as 4.38 µM.

`O=C1/C(=C/c2ccccc2F)CN(C(=O)C(Cl)Cl)C/C1=C\c1ccccc1F`: the GI50 was 0.277 µM and the TGI was found to be 1.11 µM.

`COc1cc(NC(=O)CSc2nc3ccccc3c(=O)n2CCc2ccccc2)cc(OC)c1OC`: the GI50 was 2.2 µM and the TGI worked out at 7.13 µM.

In the case of `CC(C)n1c(=O)n(C)c2cnc3cc(F)c(-c4ccc(OCCCN5CCCCC5)nc4)cc3c21`, the GI50 is 4.98 µM and the TGI was 26 µM.

`C/C(=C\CCc1ccsc1)CC/C=C(\C)CCCN1CCC(CO)CC1`: the GI50 was 1.48 µM and the TGI amounted to 3.29 µM.

Take `O=C1CC[C@H](c2ccc(O)c3c2C(=O)[C@@H]2O[C@@H]2C3=O)c2cccc(O)c21`: the GI50 is 1.61 µM and the TGI came to 4.27 µM.

Regarding `COc1cc(C2CC(c3ccccc3)=NN2C(C)=O)cc(OC)c1OC` (centres undefined), the GI50 is 3.34 µM and the TGI was found to be 37.1 µM.

As to `Cc1nn(-c2ccccc2)c2nc3c(nc12)C1=NCCN1C(c1ccc(Cl)cc1)N3` (centres undefined), the GI50 was 1.65 µM and the TGI was found to be 3.23 µM.

On to `CCN(CC)CCCCNc1ncc2cc(-c3cc(OC)cc(OC)c3)c(NC(=O)NC(C)(C)C)nc2n1`, for which the GI50 was 8.81 µM and the TGI worked out at 21.7 µM.

Consider `Cn1ccnc1C(=O)/C=C/c1ccc(CC(=O)Nc2ccc(F)cc2)cc1`, for which the GI50 is 1.72 µM and the TGI came to 5.8 µM.

As for `Cc1cc(C)c2nc3nc(C)cc(C)c3c(N)c2c1`, the GI50 was 3.61 µM and the TGI is 14.9 µM.

Turning to `O=S(=O)(CCNCc1ccc(-c2ccc3ncnc(Nc4ccc(OCc5cccc(F)c5)c(Cl)c4)c3c2)o1)c1ccccc1`, the GI50 is 0.217 µM and the TGI was 7.79 µM.

In the case of `N=c1n(Cc2ccccc2)c(N)cc(=O)n1Cc1ccccc1`, the GI50 is 4.82 µM and the TGI came out at 21.2 µM.

Regarding `Clc1ccc(C2=NN[C@H](c3cn(-c4ccccc4)nc3-c3ccccc3)C2)cc1`, the GI50 is 4.22 µM and the TGI is 18.2 µM.

Take `COc1cccc(Cn2c(-c3nonc3NC(C)=O)nc3ccccc32)c1`: the GI50 was 1.45 µM and the TGI was determined as 6.36 µM.

As for `CC1(C)N=C(N)N=C(N)N1c1cccc(CCCCOc2ccccc2)c1`, the GI50 is 0.0775 µM and the TGI worked out at 4.08 µM.
